Assays:
[1] = tested on: symptoms of drug-induced peripheral neuropathy in multiple myeloma patients on chemotherapy; experiment: Open labelled study of vitamin K2-7 on drug-induced peripheral neuropathy, symptoms scored by VAS; assay type: in vivo, human; details: for VAS Score: scale 0-10
Experimental: An open labelled study was conducted to evaluate the effect of vitamin K2-7 on drug-induced peripheral neuropathy. Patients who were diagnosed with multiple myeloma and are on chemotherapy treatment for the same, were assessed for the occurrence of symptoms of peripheral neuropathy and then selected. Patients were given 2 capsules of 100 mcg or 350 mcg of vitamin K2-7 along with the ongoing chemotherapy. The evaluation of symptoms of peripheral neuropathy (such as tingling, numbness, burning sensation, muscle cramps etc.) were assessed by VAS score (Schematic 1) from 0 to 10 (nil to unbearable). The scale has been used in various studies to measure the intensity and severity of various symptoms of neuropathy.
As the patients continued with the therapy, it was observed that the VAS score for all the symptoms decreased to between the range of “1” and “2”. This decrease has happened over a period of 2 to 5 months, depending upon the individual cases treated. […] The examples given in Table 1, summarises the data for 11 patients who were on vitamin K2-7 therapy for drug-induced peripheral neuropathy due to treatment for multiple myeloma. In Table 1, treatment administered refer to the cyclical chemotherapy provided to the patients of multiple myeloma (MM). These cycles are normally of 3 weeks or 21 days period, based on the attending physician's assessment of the patient's condition and tolerance.
However, vitamin K2-7 was administered daily as two […] capsules.
Treatment with vitamin K2-7 of subjects continued even after their having reached VAS score of “2”.
The gradation was judged by Physician based on following criteria. By using Visual Analog Scale, i.e. 0-10 point scale: 0=Absent; 1-3=Mild; 4-6=Moderate; 7-10=Severe.

[2] = in vivo; cited from earlier work
[3] = natural forms, even at high doses; cited from earlier work

| Compound | improvement in peripheral neuropathy ([1]; 1 of 11 patients who remained on 100 μg two times a day daily) | VAS Score ([1]; Patient 1, chemotherapy Bortezomib, Cyclophosphamide, Dexamethasone since June 2014, K2-7 from 16 Jun. 15 (350 μg), VAS before 8, scored 10 Dec. 15) | VAS Score ([1]; Patient 2, chemotherapy Lenalidomide, Dexamethasone since 2014, K2-7 from 25 Jun. 15 (350 μg), VAS before 8, scored 05 Nov. 15) | VAS Score ([1]; Patient 3, chemotherapy Lenalidomide, Dexamethasone, Zolendronic Acid since 2015, K2-7 from 19 Aug. 15 (100 μg), VAS before 8, scored 14 Mar. 16) | VAS Score ([1]; Patient 4, chemotherapy Bortezomib, Cyclophosphamide, Dexamethasone since 2015, K2-7 from 09 Jun. 16 (350 μg), VAS before 8, scored 22 Dec. 16) | VAS Score ([1]; Patient 5, chemotherapy Bortezomib, Cyclophosphamide, Dexamethasone since 2016, K2-7 from 23 Feb. 17 (350 μg), VAS before 9, scored 12 Aug. 17) | VAS Score ([1]; Patient 6, chemotherapy Rituximab, Cyclophosphamide, Doxorubicin, Vincristine, Prednisolone since November 2014, K2-7 from 22 May 17 (350 μg), VAS before 9, scored 04 Oct. 17) | VAS Score ([1]; Patient 7, chemotherapy Lenalidomide, Dexamethasone since 2010, K2-7 from 30 Jun. 17 (350 μg), VAS before 8, scored 27 Dec. 17) | VAS Score ([1]; Patient 8, chemotherapy Bortezomib, Cyclophosphamide, Dexamethasone since March 2017, K2-7 from 03 Nov. 17 (350 μg), VAS before 7, scored 03 Apr. 18) | VAS Score ([1]; Patient 9, chemotherapy Bortezomib, Cyclophosphamide, Dexamethasone since 2016, K2-7 from 20 Jul. 16 (350 μg), VAS before 9, scored 11 Jan. 17) | VAS Score ([1]; Patient 10, chemotherapy Lenalidomide, Dexamethasone since 2016, K2-7 from 10 Jun. 17 (350 μg), VAS before 8, scored 10 Jan. 18) | VAS Score ([1]; Patient 11, chemotherapy Dexamethasone since 2016, K2-7 from 25 Mar. 17 (350 μg), VAS before 9, scored 29 Sep. 17) | flare up of symptoms of drug-induced peripheral neuropathy ([1]; continuation of vitamin K2-7 during subsequent chemotherapy cycles) | adverse events during the vitamin K2-7 therapy ([1]; multiple myeloma patients on chemotherapy) | effect of continued treatment after reaching VAS score of 2 ([1]; treatment continued after VAS score of 2) | half-life [2] | symptoms of toxicity [3] |
| --- | --- | --- | --- | --- | --- | --- | --- | --- | --- | --- | --- | --- | --- | --- | --- | --- | --- |
| CC(C)=CCC/C(C)=C/CC/C(C)=C/CC/C(C)=C/CC/C(C)=C/CC/C(C)=C/CC/C(C)=C/CC1=C(C)C(=O)c2ccccc2C1=O [Vitamin K2-7, vitamin K2-7] | significant improvement | 2 | 2 | 2 | 1 | 2 | 2 | 2 | 2 | 2 | 3 | 2 | prevented the flair up | no adverse events were noted | stabilised the VAS Score | more than 72 hours | have not produced symptoms of toxicity |
| CC1=C(C/C=C(\C)CCC[C@H](C)CCC[C@H](C)CCCC(C)C)C(=O)c2ccccc2C1=O [vitamin K1, phylloquinonc] |  |  |  |  |  |  |  |  |  |  |  |  |  |  |  | 1.5 h |  |

Source: US11628147B2, “Vitamin K2 compositions for the treatment of drug induced neuropathy” (priority 2017, dated 2023)
